Experimental findings from ChEMBL document CHEMBL5506043, “A β-Carboline Derivate PAD4 Inhibitor Reshapes Neutrophil Phenotype and Improves the Tumor Immune Microenvironment against Triple-Negative Breast Cancer” (J Med Chem, 2024) are described below.

SMILES strings stand for the structures. The source made the active and inactive calls. No cut-off for these calls is given here.

Data set [1] is described as follows: Toxicity in female BALB/c mouse implanted with mouse orthotopic 4T1-Luc cells assessed as effect on serum urea level at 1 to 10 mg/kg, iv administered via tail vein every 2 days for 9 times for 17 days. It counts as organism-based. To be noted: in vivo, 408 h, dose 1-10 mg/kg, time 17 day.
A short description of data set [2]: Toxicity in female BALB/c mouse implanted with mouse orthotopic 4T1-Luc cells assessed as morphological changes in liver at 1 to 10 mg/kg, iv administered via tail vein every 2 days for 9 times for 17 days by H and E staining based analysis. It counts as organism-based. The settings on record: in vivo, 408 h, dose 1-10 mg/kg, time 17 day.
Data set [3] can be described thus: Toxicity in female BALB/c mouse implanted with mouse orthotopic 4T1-Luc cells assessed as morphological changes in spleen at 1 to 10 mg/kg, iv administered via tail vein every 2 days for 9 times for 17 days by H and E staining based analysis. It is filed as organism-based. The settings on record: in vivo, 408 h, dose 1-10 mg/kg, time 17 day.
Data set [4] in a line: Toxicity in female BALB/c mouse implanted with mouse orthotopic 4T1-Luc cells assessed as morphological changes in heart at 1 to 10 mg/kg, iv administered via tail vein every 2 days for 9 times for 17 days by H and E staining based analysis. It counts as organism-based. To be noted: in vivo, 408 h, dose 1-10 mg/kg, time 17 day.
Data set [5] can be described thus: Toxicity in female BALB/c mouse implanted with mouse orthotopic 4T1-Luc cells assessed as morphological changes in kidney at 1 to 10 mg/kg, iv administered via tail vein every 2 days for 9 times for 17 days by H and E staining based analysis. To be noted: in vivo, 408 h, dose 1-10 mg/kg, time 17 day. It counts as organism-based.
The target of data set [6] is Protein-arginine deiminase type-4 (Mus musculus) (UniProt Q9Z183). As to the kind of experiment: Inhibition of PAD4 in BALB/c mouse bone marrow neutrophils assessed as reduction in histone H3 citrullination at 2 uM preincubated for 2 hrs followed by calcium ionophore A23187 addition and measured after 2 hrs by Hoechst 33342/Ly6G staining based laser confocal microscopic analysis. The settings on record: Neutrophil, time 4.0 hrs.

Data set [7] concerns Mus musculus. As to the kind of experiment: Induction of tumor microenvironment in female BALB/c mouse implanted with mouse orthotopic 4T1-Luc cells assessed as downregulation of myeloid derived suppressive G-MDSC cells at 1 to 10 mg/kg, iv administered via tail vein every 2 days for 9 times for 17 days by single-cell mass spectrometry flow cytometry analysis. It counts as functional, organism-based. To be noted: dose 1-10 mg/kg, time 17.0 day.

A short description of data set [8]: Cytotoxicity against human MCF-10A cells assessed as inhibition of cell growth incubated for 48 hrs by MTT assay. It is filed as toxicity, cell-based. For orientation: Tetrazolium dyes change colour on reduction, which living cells bring about.
Data set [9] deals with Mus musculus. As to the kind of experiment: Induction of tumor microenvironment in female BALB/c mouse implanted with mouse orthotopic 4T1-Luc cells assessed as decrease in proportion of PD-L1-positive/MHC-II-positive tumor-associated neutrophils at 1 to 10 mg/kg, iv administered via tail vein every 2 days for 9 times for 17 days by single-cell mass spectrometry flow cytometry analysis. It is filed as functional, organism-based. To be noted: dose 1-10 mg/kg, time 17.0 day. For orientation: Flow cytometry measures light scatter and fluorescence of single cells or particles in a stream.

Data set [10] has as its target Protein-arginine deiminase type-4 (Mus musculus) (UniProt Q9Z183). The experiment in a line: Inhibition of PAD4 in mouse 4T1 cells assessed as reduction in histone H3 citrullination at 2 uM by immunofluorescence analysis. It is filed as cell-based.
The nature of data set [11]: Terminal half life in male Sprague-Dawley rat at 3.5 mg/kg, iv by LC-MS/MS analysis. It is filed as ADME, organism-based. The settings on record: in vivo.
A short description of data set [12]: AUC (0 to t) in male Sprague-Dawley rat at 3.5 mg/kg, iv by LC-MS/MS analysis. It counts as ADME, organism-based. The settings on record: in vivo.
Data set [13] in a line: Antitumor activity against mouse orthotopic 4T1-Luc cells implanted in female BALB/c mouse assessed as tumor growth inhibition at 10 mg/kg, iv administered via tail vein every 2 days for 9 times for 17 days and measured every 2 days relative to control. It is filed as functional. To be noted: 408 h, time 17 day, read-out: TGI.
The next data set relates to 4T1. As to the kind of experiment: Antimetastatic activity in starved mouse 4T1 cells assessed as inhibition of cell migration by measuring reduction in wound closure rate incubated for 24 hrs by scratch wound healing assay. It counts as functional, cell-based. To be noted: dose 0.5-2 µM.
For data set [14], the system named is Mus musculus. The experiment in a line: Induction of tumor microenvironment in female BALB/c mouse implanted with mouse orthotopic 4T1-Luc cells assessed as decrease in PD-L1 expression for PD-L1-positive/MHC-II-positive tumor-associated neutrophils at 1 to 10 mg/kg, iv administered via tail vein every 2 days for 9 times for 17 days. It counts as functional, organism-based. The settings on record: dose 1-10 mg/kg, time 17.0 day.

Data set [15] addresses Protein-arginine deiminase type-4 (Homo sapiens, UniProt Q9UM07). As to the kind of experiment: Inhibition of PAD4 (unknown origin) using Nalpha-benzoyl-L-arginine ethyl ester as substrate preincubated for 60 mins followed by substrate addition and measured after 90 mins by colorimetric analysis.
For a further data set, the system named is 4T1-Luc. As to the kind of experiment: Antitumor activity against mouse orthotopic 4T1-Luc cells implanted in iv dosed female BALB/c mouse assessed as inhibition of tumor growth administered via tail vein every 2 days for 9 times for 17 days and measured every 2 days by IVIS live cell imaging analysis. It is filed as functional, organism-based. The settings on record: dose 1-10 mg/kg, time 17.0 day.

In data set [16] the test system is Mus musculus. The experiment in a line: Induction of tumor microenvironment in female BALB/c mouse implanted with mouse orthotopic 4T1-Luc cells assessed as increase in MHC-II expression for MHC-II-positive tumor-associated neutrophils at 1 to 10 mg/kg, iv administered via tail vein every 2 days for 9 times for 17 days. It is filed as functional, organism-based. To be noted: dose 1-10 mg/kg, time 17.0 day.

Sequence of Protein-arginine deiminase type-4 (Mus musculus) (Q9Z183 whole entry): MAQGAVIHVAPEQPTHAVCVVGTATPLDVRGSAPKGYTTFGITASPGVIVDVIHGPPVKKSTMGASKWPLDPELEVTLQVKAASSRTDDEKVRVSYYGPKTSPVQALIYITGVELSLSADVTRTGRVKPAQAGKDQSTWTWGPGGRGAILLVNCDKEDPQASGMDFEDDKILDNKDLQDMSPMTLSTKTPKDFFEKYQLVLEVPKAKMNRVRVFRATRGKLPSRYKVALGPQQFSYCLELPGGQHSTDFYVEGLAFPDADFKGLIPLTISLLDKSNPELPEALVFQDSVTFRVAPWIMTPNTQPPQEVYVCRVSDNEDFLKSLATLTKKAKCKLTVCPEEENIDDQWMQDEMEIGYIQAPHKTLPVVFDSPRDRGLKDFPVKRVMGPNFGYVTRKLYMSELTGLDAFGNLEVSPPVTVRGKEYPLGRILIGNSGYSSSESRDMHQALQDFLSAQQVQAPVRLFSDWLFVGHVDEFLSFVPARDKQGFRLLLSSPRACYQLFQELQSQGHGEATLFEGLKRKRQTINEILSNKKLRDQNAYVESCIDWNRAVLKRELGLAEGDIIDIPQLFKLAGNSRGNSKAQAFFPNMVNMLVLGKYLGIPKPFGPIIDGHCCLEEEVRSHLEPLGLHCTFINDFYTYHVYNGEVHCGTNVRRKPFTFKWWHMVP
Sequence of Protein-arginine deiminase type-4 (Q9UM07 whole entry): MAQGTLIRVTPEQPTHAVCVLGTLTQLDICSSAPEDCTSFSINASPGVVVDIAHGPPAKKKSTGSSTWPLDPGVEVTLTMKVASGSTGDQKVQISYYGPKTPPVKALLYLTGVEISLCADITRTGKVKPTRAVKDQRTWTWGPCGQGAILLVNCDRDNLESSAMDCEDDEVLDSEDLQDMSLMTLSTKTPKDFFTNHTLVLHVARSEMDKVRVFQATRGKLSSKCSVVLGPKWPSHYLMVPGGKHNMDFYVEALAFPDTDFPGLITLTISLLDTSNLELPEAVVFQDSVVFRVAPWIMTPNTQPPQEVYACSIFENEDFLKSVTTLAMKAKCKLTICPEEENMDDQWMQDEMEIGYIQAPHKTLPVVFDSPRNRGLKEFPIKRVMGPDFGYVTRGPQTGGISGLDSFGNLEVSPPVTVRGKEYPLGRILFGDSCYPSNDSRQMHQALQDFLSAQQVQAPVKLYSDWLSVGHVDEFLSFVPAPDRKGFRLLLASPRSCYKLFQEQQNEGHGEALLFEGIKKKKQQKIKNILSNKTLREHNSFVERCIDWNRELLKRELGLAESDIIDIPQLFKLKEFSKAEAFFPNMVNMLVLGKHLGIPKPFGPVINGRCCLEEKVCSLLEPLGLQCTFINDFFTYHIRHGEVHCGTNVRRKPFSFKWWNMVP

Consider `N=C(CCl)NCCC[C@H](NC(=O)c1cc2c([nH]c3ccccc32)c(-c2ccccc2)n1)C(=O)NCc1ccccc1`, for which the Activity result in [1] was “Non-Toxic”; in [2], “Non-Toxic”; in data set [3], “Non-Toxic”; in data set [4] it was “Non-Toxic”; in [5], “Non-Toxic”; with 4T1, “Dose-Dependent Effect”. Further, the Activity entry in the data set with 4T1-Luc was “Dose-Dependent Effect”. Further, the inhibition entry in data set [6] and in data set [10] was “Active” in each case. For the same molecule, the outcome in the data set with Mus musculus [7], with Mus musculus [9], with Mus musculus [14] and in the data set with Mus musculus [16] was Active. In addition, the half-maximal inhibitory concentration (IC50) (commonly the concentration that inhibits the measured activity by half) at 48 h in [8] worked out at 8.39 µM. For the same molecule, the “beta t1/2” value in data set [11] is 15 min. Moreover, the AUC(0-t) (in general, exposure summed from dosing to a finite time, without extrapolation to infinity) in data set [12] was found to be 9.53 ng·h/mL. Also, the inhibition in vivo at 10 mg/kg in data set [13] was 61.8%. In data set [15], the IC50 is 0.79 µM.
